Laboratory results as given in patent US6548552B1 (priority 1997, dated 2003).

Experiments:
Assay type in all cases: cell-based
S. aureus = system: S. aureus
[1] = system: TSST-1 production by S. aureus
[2] = system: Peptostreptococcus anaerobius
Prevotella bivia = system: Prevotella bivia
Vaginal Microflora = system: Vaginal Microflora

Row | Compound | OD540 (Percentage of Control) (S. aureus) | effect on bacterial toxin production (in words) [1] | other results
1 | Cn1c(=O)c2c(ncn2C)n(C)c1=O [Caffeine, caffeine] | 93 Percentage of Control | reduced toxin production | –
2 | CC(=O)N[C@@H](CS)C(=O)O [N-acetyl cysteine, N-acetylcysteine] | 89 Percentage of Control | reduced toxin production | –
3 | potassium bisulfite | 91 Percentage of Control | – | –
4 | delta-tocopherol | 112 Percentage of Control | – | –
5 | CCCOC(=O)c1cc(O)c(O)c(O)c1 [Propylgallate, propyl gallate] | 74 Percentage of Control | – | –
6 | O=C1O[C@H]([C@@H](O)CO)C(O)=C1O [Ascorbic acid, ascorbic acid] | 104 Percentage of Control | reduced toxin production | Staphylococcal / bacterial growth (inhibition, in words) (S. aureus): does not inhibit Staphylococcal growth; reduction of toxin production [1]: up to 40%
7 | thiodipropionic acid | 99 Percentage of Control | – | –
8 | beta-mercaptoethanol | 93 Percentage of Control | – | –
9 | sodium bisulfite | 64 Percentage of Control | – | –
10 | CCCCCCCCCCCC(=O)OCCOCCOCCOCCOCCOCCOCCOCCOCCOCCOCCOCCOCCOCCOCCOCCOCCOCCOCCOCCOCC(OCCOCCOCCOCCOCCOCCOCCOCCOCCOCCOCCOCCOCCOCCOCCOCCOCCOCCOCCOCCO)C1OCC(OCCOCCOCCOCCOCCOCCOCCOCCOCCOCCOCCOCCOCCOCCOCCOCCOCCOCCOCCOCCO)C1OCCOCCOCCOCCOCCOCCOCCOCCOCCOCCOCCOCCOCCOCCOCCOCCOCCOCCOCCOCCO (centres unmarked) [Polysorbate 20] | – | – | growth of P. anaerobius [2]: suppressed; growth of P. bivia (Prevotella bivia): suppressed
11 | N[C@@H](CS)C(=O)O [Cysteine, cysteine] | 105 Percentage of Control | reduced toxin production | –
12 | OCC(O)CO [glycerin] | – | – | growth of P. bivia (Prevotella bivia): inhibited; growth of the isolates tested (Vaginal Microflora): did not effect the growth
